Measurements: ChEMBL document CHEMBL5154740, “Novel Aurora A and Protein Kinase C (α, β1, β2, and θ) Multitarget Inhibitors: Impact of Selenium Atoms on the Potency and Selectivity” (J Med Chem, 2022)

Experiments:
[1] = target: Protein kinase C beta type (Homo sapiens) (UniProt P05771); assay: Inhibition of PKCbeta1 (unknown origin) by Z'LYTE screening method relative to control; conditions: concentration not given here
[2] = target: Protein kinase C alpha type (Homo sapiens) (UniProt P17252); assay: Inhibition of PKCalpha (unknown origin) by Z'LYTE screening method relative to control; conditions: concentration not given here
[3] = target: Proto-oncogene tyrosine-protein kinase receptor Ret (Homo sapiens) (UniProt P07949); assay: Inhibition of RET (unknown origin) by Z'LYTE screening method relative to control; conditions: concentration not given here
Chain of Proto-oncogene tyrosine-protein kinase receptor Ret (Homo sapiens) (P07949 whole entry): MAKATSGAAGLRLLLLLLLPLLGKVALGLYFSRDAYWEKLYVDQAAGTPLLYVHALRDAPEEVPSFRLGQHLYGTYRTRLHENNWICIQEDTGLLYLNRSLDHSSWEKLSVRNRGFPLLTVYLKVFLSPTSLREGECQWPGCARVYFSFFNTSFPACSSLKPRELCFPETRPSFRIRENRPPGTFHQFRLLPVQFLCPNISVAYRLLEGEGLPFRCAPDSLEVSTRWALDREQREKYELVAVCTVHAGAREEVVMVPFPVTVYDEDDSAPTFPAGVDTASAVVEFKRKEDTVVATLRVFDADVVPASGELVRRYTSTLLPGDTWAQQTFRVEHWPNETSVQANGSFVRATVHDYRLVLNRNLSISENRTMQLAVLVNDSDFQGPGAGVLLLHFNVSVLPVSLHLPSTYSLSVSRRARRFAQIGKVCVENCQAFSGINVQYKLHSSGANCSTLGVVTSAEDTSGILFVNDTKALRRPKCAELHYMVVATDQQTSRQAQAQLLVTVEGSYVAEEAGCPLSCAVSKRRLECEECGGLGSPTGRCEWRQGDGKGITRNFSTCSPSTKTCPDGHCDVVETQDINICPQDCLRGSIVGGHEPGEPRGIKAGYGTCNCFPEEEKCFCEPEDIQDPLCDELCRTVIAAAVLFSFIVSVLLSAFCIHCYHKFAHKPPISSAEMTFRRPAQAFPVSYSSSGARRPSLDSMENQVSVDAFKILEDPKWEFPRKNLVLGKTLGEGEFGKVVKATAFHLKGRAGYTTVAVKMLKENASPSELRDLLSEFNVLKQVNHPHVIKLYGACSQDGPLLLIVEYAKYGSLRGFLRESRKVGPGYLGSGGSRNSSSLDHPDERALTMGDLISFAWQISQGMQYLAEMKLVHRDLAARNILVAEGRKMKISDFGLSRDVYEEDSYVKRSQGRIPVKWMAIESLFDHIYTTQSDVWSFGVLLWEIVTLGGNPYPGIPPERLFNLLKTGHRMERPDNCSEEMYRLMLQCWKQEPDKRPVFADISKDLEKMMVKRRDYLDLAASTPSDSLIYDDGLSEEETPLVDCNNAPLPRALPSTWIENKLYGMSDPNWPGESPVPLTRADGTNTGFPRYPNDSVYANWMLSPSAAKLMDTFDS

[4] = target: Protein kinase C beta type (Homo sapiens) (UniProt P05771); assay: Inhibition of PKCbeta2 (unknown origin) by Z'LYTE screening method relative to control; conditions: concentration not given here
[5] = target: Protein kinase C beta type (Homo sapiens) (UniProt P05771); assay: Inhibition of PKCbeta1 (unknown origin) at 50 nM by Z'LYTE screening method relative to control
[6] = target: Protein kinase C beta type (Homo sapiens) (UniProt P05771); assay: Inhibition of PKCbeta2 (unknown origin) at 50 nM by Z'LYTE screening method relative to control
[7] = target: T1, Protein kinase C theta type (Homo sapiens, UniProt Q04759); assay: Inhibition of PKCtheta (unknown origin) at 50 nM by Z'LYTE screening method relative to control
Target sequence in this assay (Q04759 whole entry, looked up): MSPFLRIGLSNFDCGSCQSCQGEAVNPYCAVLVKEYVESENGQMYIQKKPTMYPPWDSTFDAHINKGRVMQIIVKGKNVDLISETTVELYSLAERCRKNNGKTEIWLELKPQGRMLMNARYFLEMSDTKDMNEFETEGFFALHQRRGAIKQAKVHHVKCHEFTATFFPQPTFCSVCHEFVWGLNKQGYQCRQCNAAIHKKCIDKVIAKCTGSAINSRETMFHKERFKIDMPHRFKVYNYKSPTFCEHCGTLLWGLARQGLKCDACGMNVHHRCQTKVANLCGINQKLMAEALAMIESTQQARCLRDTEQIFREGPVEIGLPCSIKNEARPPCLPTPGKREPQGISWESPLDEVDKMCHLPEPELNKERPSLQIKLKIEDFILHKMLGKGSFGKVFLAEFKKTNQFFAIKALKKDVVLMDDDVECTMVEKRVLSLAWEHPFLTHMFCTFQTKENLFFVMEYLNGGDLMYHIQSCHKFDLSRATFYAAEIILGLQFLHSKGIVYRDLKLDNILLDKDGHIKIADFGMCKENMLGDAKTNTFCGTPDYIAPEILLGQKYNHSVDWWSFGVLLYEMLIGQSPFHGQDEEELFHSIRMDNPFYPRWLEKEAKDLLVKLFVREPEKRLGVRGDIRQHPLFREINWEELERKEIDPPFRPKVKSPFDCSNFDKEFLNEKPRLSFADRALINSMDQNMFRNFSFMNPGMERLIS

MDA-MB-231 = assay: Cytotoxicity against human MDA-MB-231/M cells assessed as reduction in cell viability incubated for 96 hrs by MTT assay; format: functional, cell-based; conditions: MDA-MB-231, 96 h
[8] = target: T2, Aurora kinase A (Homo sapiens) (UniProt O14965); assay: Inhibition of AURA (unknown origin) at 50 nM by Z'LYTE screening method relative to control
T2 sequence (whole entry): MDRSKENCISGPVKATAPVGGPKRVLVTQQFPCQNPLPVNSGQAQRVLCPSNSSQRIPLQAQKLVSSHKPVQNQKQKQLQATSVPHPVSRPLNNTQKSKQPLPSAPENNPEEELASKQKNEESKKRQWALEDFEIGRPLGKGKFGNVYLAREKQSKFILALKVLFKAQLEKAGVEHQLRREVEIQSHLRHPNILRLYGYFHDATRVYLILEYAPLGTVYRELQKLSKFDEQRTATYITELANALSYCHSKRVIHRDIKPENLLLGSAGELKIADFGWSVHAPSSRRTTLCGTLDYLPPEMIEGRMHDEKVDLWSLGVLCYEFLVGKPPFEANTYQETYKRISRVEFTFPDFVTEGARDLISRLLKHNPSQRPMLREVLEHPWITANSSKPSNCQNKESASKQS

[9] = target: Protein kinase C alpha type (Homo sapiens) (UniProt P17252); assay: Inhibition of PKCalpha (unknown origin) at 50 nM by Z'LYTE screening method relative to control
4T1 = assay: Cytotoxicity against mouse 4T1 cells assessed as reduction in cell viability incubated for 96 hrs by MTT assay; format: functional, cell-based; conditions: 4T1, 96 h
[10] = target: Aurora kinase B (Homo sapiens) (UniProt Q96GD4); assay: Inhibition of AURB (unknown origin) at 50 nM by Z'LYTE screening method relative to control
Chain of Aurora kinase B (Homo sapiens) (Q96GD4 whole entry): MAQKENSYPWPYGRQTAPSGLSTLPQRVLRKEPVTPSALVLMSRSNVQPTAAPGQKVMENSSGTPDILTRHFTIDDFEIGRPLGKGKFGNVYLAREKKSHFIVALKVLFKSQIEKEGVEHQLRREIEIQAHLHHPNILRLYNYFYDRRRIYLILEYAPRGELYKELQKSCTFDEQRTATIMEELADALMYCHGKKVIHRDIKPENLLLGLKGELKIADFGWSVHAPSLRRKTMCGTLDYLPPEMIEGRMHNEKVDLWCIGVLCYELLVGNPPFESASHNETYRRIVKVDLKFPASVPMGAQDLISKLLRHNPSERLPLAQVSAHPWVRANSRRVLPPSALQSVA

Aurora kinase C = Aurora kinase C (Homo sapiens, UniProt Q9UQB9); assay: Inhibition of AURC (unknown origin)
Chain of Aurora kinase C (Q9UQB9 whole entry): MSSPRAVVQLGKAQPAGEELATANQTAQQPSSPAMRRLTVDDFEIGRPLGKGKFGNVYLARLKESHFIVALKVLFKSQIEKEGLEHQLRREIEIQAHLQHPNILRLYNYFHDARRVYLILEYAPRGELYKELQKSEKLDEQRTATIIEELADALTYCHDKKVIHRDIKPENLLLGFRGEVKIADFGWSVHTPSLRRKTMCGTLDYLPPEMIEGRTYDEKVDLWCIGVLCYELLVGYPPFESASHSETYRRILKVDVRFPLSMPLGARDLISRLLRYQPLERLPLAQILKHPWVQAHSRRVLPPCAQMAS

[11] = target: T3, Protein kinase C zeta type (Homo sapiens) (UniProt Q05513); assay: Inhibition of PKCzeta (unknown origin) by Z'LYTE screening method relative to control; conditions: concentration not given here
T3 sequence (whole entry): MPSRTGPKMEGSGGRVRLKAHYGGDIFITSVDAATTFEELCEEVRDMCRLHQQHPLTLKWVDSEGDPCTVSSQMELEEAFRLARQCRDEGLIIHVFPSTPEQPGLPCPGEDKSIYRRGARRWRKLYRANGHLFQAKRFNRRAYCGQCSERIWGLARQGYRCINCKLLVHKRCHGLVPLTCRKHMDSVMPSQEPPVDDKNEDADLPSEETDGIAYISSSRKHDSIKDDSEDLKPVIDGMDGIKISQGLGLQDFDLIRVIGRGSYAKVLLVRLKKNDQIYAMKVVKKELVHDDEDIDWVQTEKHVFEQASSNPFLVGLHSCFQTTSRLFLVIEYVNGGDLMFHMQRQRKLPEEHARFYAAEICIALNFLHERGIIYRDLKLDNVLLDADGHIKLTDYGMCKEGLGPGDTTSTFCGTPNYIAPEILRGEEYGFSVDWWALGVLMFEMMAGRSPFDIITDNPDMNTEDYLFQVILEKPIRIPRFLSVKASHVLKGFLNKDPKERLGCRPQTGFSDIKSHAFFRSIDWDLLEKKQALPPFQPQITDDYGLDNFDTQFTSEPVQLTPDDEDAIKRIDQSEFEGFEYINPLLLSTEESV

[12] = target: T4, Serine/threonine-protein kinase D1 (Homo sapiens) (UniProt Q15139); assay: Inhibition of PKCmu (unknown origin) by Z'LYTE screening method relative to control; conditions: concentration not given here
T4 sequence (whole entry): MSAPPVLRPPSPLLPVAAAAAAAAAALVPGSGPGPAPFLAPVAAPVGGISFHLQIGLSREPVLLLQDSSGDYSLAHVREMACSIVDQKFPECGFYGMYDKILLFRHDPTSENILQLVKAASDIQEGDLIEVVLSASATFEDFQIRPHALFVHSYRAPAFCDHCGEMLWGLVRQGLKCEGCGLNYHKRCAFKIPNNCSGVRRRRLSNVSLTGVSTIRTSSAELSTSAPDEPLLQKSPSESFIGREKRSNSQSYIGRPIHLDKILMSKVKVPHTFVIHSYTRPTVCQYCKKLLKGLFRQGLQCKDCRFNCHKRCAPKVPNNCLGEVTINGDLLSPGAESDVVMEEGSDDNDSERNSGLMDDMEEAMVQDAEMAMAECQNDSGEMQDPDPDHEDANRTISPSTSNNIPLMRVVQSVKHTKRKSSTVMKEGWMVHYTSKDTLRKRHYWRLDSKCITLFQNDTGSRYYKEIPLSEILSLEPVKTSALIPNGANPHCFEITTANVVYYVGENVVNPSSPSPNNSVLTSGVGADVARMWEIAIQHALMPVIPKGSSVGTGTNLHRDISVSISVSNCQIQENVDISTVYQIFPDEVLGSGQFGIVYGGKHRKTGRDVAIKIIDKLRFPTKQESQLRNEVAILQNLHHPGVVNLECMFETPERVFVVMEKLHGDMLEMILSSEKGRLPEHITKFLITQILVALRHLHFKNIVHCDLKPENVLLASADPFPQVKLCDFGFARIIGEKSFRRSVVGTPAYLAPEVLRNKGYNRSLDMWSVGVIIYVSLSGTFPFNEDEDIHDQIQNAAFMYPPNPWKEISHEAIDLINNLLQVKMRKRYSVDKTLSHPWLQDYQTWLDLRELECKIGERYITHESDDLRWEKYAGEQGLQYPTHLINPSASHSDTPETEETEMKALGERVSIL

[13] = target: T5, Serine/threonine-protein kinase D3 (Homo sapiens) (UniProt O94806); assay: Inhibition of PKCnu (unknown origin) by Z'LYTE screening method relative to control; conditions: concentration not given here
T5 sequence (whole entry): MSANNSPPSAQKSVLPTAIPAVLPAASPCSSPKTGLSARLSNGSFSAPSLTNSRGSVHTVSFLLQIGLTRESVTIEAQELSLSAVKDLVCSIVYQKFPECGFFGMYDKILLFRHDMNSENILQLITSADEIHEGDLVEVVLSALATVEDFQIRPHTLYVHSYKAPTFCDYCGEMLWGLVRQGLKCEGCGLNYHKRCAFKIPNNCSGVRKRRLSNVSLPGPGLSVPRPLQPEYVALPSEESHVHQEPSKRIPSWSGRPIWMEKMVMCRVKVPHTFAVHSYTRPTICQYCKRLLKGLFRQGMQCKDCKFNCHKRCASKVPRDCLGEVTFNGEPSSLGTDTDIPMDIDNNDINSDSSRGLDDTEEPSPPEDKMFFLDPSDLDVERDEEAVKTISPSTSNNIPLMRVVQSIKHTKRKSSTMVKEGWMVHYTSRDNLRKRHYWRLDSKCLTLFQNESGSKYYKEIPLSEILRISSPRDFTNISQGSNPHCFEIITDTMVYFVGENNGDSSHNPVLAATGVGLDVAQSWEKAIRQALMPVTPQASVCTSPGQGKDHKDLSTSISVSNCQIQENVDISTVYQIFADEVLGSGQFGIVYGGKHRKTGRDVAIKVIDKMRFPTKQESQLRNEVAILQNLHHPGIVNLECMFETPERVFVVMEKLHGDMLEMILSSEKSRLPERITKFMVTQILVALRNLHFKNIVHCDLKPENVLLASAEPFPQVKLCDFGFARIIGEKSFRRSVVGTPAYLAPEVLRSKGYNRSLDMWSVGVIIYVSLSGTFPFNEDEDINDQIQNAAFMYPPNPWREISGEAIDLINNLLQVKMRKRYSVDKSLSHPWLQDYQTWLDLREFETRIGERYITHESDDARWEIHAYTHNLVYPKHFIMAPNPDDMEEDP

[14] = target: Serine/threonine-protein kinase D3 (Homo sapiens, UniProt O94806); assay: Inhibition of PKCnu (unknown origin) by IMAP kinase assay
[15] = target: T6, Protein kinase C epsilon type (Homo sapiens) (UniProt Q02156); assay: Inhibition of PKCepsilon (unknown origin) by Z'LYTE screening method relative to control; conditions: concentration not given here
T6 sequence (whole entry): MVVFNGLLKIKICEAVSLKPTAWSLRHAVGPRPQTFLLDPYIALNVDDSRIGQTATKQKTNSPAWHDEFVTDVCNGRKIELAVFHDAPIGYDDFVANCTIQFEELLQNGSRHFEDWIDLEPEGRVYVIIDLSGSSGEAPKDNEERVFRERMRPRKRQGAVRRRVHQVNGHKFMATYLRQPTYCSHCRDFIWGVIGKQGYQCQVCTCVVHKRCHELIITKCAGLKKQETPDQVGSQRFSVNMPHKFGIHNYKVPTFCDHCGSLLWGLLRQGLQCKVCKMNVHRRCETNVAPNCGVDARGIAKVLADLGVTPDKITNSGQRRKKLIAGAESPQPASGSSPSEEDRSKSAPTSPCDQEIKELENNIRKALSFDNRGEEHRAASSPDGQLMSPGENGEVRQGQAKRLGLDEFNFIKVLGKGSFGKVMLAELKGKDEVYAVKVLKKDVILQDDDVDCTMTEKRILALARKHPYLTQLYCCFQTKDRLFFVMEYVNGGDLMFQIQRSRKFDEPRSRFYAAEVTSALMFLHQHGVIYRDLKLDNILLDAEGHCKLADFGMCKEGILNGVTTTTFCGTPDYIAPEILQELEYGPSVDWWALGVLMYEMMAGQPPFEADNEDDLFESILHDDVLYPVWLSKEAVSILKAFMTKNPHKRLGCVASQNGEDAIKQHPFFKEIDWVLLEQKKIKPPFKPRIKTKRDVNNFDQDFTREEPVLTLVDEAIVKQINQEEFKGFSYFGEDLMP

[16] = target: T1, Protein kinase C theta type; assay: Inhibition of full length human PKCtheta using 5-FAM-RFARKGSLRQKNV-OH peptide substrate incubated for 30 mins by IMAP kinase assay
Target sequence in this assay (Q04759 whole entry): as the sequence (Q04759 whole entry, looked up) above

[17] = target: Protein kinase C epsilon type (Homo sapiens, UniProt Q02156); assay: Inhibition of PKCepsilon (unknown origin) by IMAP kinase assay
[18] = target: Protein kinase C eta type (Homo sapiens, UniProt P24723); assay: Inhibition of PKCeta (unknown origin) by IMAP kinase assay
Chain of Protein kinase C eta type (P24723 whole entry): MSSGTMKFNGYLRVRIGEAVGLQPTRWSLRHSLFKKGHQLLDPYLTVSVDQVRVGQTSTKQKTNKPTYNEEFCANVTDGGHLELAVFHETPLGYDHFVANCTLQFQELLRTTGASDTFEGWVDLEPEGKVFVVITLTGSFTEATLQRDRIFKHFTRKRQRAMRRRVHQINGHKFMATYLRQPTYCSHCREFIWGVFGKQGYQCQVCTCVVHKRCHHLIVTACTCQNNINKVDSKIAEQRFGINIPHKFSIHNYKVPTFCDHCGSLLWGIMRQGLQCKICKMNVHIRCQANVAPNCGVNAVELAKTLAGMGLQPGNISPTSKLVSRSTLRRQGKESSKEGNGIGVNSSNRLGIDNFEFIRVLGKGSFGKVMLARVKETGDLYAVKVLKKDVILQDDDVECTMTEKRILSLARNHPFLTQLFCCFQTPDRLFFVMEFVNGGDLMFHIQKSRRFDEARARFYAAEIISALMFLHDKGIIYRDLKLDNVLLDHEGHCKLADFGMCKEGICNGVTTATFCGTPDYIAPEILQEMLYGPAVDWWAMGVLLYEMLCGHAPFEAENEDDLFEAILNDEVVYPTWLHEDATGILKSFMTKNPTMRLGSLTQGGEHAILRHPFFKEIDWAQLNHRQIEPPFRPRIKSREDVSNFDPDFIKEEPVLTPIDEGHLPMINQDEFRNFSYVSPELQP

Chain of Protein kinase C beta type (Homo sapiens) (P05771 2-671 limits assumed): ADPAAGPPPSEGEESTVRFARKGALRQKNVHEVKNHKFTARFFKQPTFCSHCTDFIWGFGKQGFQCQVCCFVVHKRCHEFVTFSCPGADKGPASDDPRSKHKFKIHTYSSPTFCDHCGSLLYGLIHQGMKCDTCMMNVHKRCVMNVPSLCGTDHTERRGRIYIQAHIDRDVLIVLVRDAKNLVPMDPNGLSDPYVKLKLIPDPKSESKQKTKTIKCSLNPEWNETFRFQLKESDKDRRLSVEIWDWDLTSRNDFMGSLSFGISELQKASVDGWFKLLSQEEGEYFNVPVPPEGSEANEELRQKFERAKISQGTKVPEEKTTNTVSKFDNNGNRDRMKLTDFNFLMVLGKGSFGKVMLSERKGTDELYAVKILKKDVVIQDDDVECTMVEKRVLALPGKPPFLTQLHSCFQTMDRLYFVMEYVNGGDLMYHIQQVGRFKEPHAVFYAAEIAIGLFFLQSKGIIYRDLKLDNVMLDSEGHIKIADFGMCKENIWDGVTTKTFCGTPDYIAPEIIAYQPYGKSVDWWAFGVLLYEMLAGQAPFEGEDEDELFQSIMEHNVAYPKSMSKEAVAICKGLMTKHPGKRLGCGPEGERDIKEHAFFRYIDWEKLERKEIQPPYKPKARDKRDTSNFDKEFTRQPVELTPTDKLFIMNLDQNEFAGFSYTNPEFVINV

SMILES | inhibition [1] | inhibition [2] | inhibition [4] | inhibition [5] | inhibition [6] | inhibition [7] | IC50 (MDA-MB-231) | inhibition [8] | inhibition [9] | IC50 (4T1) | inhibition [10] | other results
Cc1cc(Nc2cc(N3CCN(C)CC3)nc(Sc3ccc(NC(=O)C4CC4)cc3)n2)n[nH]1 | 6% | 8% | 2% |  |  |  |  |  |  |  |  | inhibition [3]: 62%
O=c1c2ccccc2sn1-c1nc(NC2CCCC2)c2nc[nH]c2n1 |  |  |  | 40% | 13% | 60% | 29200 nM | 58% | 65% | 25600 nM | 7% | 
O=C(Nc1cccc(Cl)c1)Nc1ncc(CCNc2ncnc3ccsc23)s1 [SNS-314] |  |  |  |  |  |  |  |  |  |  |  | IC50 (Aurora kinase C): 3 nM
CN1CCN(c2nc(C3=C(c4c[nH]c5ccccc45)C(=O)NC3=O)c3ccccc3n2)CC1 [SOTRASTAURIN] | 98% | 100% | 98% |  |  |  |  |  |  |  |  | inhibition [11]: 80%; inhibition [12]: 92%; inhibition [13]: 76%; IC50 [14]: 2.1 nM; inhibition [15]: 76%; IC50 [16]: 0.22 nM; IC50 [17]: 3.2 nM
O=c1c2ccccc2sn1-c1nc(NC2CCSC2)c2nc[nH]c2n1 (configuration not stated) |  |  |  | 85% | 81% | 97% | 10300 nM | 69% | 92% | 12200 nM | 7% | 
O=C(N[C@@H]1CNCCC[C@H]1OC(=O)c1cc(O)c(C(=O)c2c(O)cccc2C(=O)O)c(O)c1)c1ccc(O)cc1 [BALANOL] |  |  |  |  |  |  |  |  |  |  |  | IC50 [18]: 4 nM
